Assay [1] deals with SK-MEL-5, SK-MEL-28, and SK-MEL-30 cell lines. Put plainly: Melanoma cell proliferation. Type of assay: cell-based. The conditions noted are these: SK-MEL-5, SK-MEL-28 (B-Raf V600E), SK-MEL-30 (N-Ras Q61K); FIG. 3. As to the method: The ability of IA-9 to treat melanoma was tested using the SK-MEL-5, SK-MEL-28, and SK-MEL-30 cell lines. SK-MEL-5 and SK-MEL-28 express mutant B-Raf (V600E) and wildtype N-Ras. SK-MEL-30 expresses wildtype B-Raf and mutant N-Ras (Q61K). Cell proliferation was tested using methods described herein.

Assay [2] relates to BaF3-NRASD12. In words: Oncogenic RAS dependent cell proliferation (CellTiter Glo). In kind it is cell-based, murine. Particulars: Mus musculus, BaF3-NRASD12 cells, 48 hours, read-out: NRas-BaF3 IC50. The method in brief: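 BaF/3 cells transformed with NRASD12 or KRASD12, plus parental BaF/3, seeded at 5000 cells/well. Viability read by CellTiter-Glo luminescence, reagent diluted 1:4 in PBS, with vehicle and cell-free background controls.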
(Cellular ATP, detected with luciferase, serves as a proxy for viable cell number.)

Assay [3] deals with Wt-BaF3. In words: Parental Ba/F3 cell proliferation (CellTiter Glo). In kind it is cell-based, murine. The conditions noted are these: Mus musculus, parental BaF/3 cells, 48 hours. The procedure, abridged: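 Untransformed murine Ba/F3 cells, kept on 15% WEHI conditioned medium as IL3 source, were seeded at 5000 cells/well with compound. Viability was read by luminescence using CellTiter Glo diluted 1:4 in PBS, with no-cell background and vehicle controls.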

The target of assay [4] is T1, BaF3-BCR/ABL (Homo sapiens, UniProt P00519).
T1 construct: fused on or other part: P11274 (Breakpoint cluster region protein)
Put plainly: Antiproliferative activity, kinase-dependent Ba/F3 cells (MTT/MTS). In kind it is cell-based, murine. Particulars: 48 hours, cell viability, read-out: BCR/ABL IC50. The method in brief: (§1)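 Murine Ba/F3 cells transformed with BCR/ABL (p210) or BCR/ABL-T315I, grown in RPMI/10% FCS without IL3, were seeded at 20,000 cells/well. Viability was read by MTT/MTS. IC50 is the concentration reducing viability to 50% of DMSO vehicle control.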

In assay [5] the target is T2, BaF3-BCR/ABL-T315I (Homo sapiens, UniProt P00519, T315I, cells depend on it).
T2 construct: fused on or other part: P11274 (Breakpoint cluster region protein)
The description is as above. In kind it is cell-based, murine. Particulars: 48 hours, cell viability, read-out: BCR/ABL T315I IC50. The method in brief: as §1

The target of assay [6] is MAP4K2 (Homo sapiens, UniProt Q12851). In words: KINOMEscan competition binding. The conditions noted are these: read-out: Percent Control. The method in brief: (§2)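 Competitive displacement format with an active-site ligand on solid support; test concentration 10 μM; data as % Ctrl, lower meaning stronger hit.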
Assay [7] has as its target T3, MAP3K1 (Homo sapiens, UniProt Q13233).
T3 construct: purchased KINOMEscan (screening platform)
In words: KINOMEscan competition binding. The conditions noted are these: read-out: Percent Control. The method in brief: as §2

Assay [8] deals with T4, ASK2 (Homo sapiens, UniProt O95382).
T4 construct: purchased KINOMEscan (screening service)
T4 sequence (O95382 whole entry): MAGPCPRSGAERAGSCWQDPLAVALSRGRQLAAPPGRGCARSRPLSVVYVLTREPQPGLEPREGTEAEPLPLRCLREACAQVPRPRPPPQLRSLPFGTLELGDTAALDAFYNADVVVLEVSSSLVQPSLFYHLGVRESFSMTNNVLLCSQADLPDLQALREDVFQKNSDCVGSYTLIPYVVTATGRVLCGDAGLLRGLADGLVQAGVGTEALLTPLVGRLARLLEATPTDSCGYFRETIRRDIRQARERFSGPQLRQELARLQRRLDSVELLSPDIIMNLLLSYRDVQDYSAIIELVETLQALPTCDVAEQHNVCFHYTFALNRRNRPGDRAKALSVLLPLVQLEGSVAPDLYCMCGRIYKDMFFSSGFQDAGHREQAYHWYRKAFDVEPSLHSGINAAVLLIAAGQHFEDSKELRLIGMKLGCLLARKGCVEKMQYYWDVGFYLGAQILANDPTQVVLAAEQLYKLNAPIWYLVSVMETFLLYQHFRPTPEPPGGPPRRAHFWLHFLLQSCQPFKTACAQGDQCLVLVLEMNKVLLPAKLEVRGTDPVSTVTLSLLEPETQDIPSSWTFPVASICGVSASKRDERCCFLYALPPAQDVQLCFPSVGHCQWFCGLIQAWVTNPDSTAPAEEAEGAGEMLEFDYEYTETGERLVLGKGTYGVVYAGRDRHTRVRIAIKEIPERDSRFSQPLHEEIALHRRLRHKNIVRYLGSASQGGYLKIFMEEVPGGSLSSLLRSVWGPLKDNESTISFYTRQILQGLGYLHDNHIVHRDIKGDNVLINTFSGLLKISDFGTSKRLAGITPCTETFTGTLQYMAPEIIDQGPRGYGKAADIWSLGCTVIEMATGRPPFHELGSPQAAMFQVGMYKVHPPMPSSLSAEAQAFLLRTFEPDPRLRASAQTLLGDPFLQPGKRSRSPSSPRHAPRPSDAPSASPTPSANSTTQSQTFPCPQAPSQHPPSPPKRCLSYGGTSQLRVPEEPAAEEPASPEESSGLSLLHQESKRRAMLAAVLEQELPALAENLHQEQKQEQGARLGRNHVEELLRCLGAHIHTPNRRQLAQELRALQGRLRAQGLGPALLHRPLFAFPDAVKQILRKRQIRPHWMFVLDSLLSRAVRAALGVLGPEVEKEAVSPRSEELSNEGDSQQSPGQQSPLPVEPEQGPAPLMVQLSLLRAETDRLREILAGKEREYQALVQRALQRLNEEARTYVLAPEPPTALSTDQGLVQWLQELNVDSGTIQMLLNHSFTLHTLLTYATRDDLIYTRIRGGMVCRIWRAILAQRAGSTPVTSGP
Put plainly: KINOMEscan competition binding. Particulars: ASK2 (Entrez MAP3K6), read-out: Percent Control. The procedure, abridged: as §2

Assay [9] addresses FER (Homo sapiens, UniProt P16591). In words: KINOMEscan competition binding. Particulars: read-out: Percent Control. The method in brief:
as §2

The target in assay [10] is EPHB2 (Homo sapiens, UniProt P29323). Put plainly: KINOMEscan competition binding. The conditions noted are these: read-out: Percent Control. The method in brief: as §2
Assay [11] addresses FES (Homo sapiens, UniProt P07332). Put plainly: KINOMEscan competition binding. The conditions noted are these: read-out: Percent Control. The procedure, abridged:
as §2

For assay [12], the target named is FGFR2 (Homo sapiens, UniProt P21802). In words: KINOMEscan competition binding. Particulars: read-out: Percent Control. The method in brief: as §2
Assay [13] concerns the target RIPK2 (Homo sapiens, UniProt O43353). In words: KINOMEscan competition binding. The conditions noted are these: read-out: Percent Control. The method in brief: as §2
Assay [14] addresses SYK (Homo sapiens, UniProt P43405). In words: KINOMEscan competition binding. Particulars: read-out: Percent Control. The procedure, abridged:
as §2

In assay [15] the target is EPHB3 (Homo sapiens, UniProt P54753). Put plainly: KINOMEscan competition binding. The conditions noted are these: read-out: Percent Control. The method in brief: as §2
In assay [16] the target is MLK3 (Homo sapiens, UniProt Q16584). In words: KINOMEscan competition binding. The conditions noted are these: MLK3 (Entrez MAP3K11), read-out: Percent Control. The method in brief:
as §2

For assay [17], the target named is T5, TNK1 (Homo sapiens, UniProt Q13470).
T5 construct: purchased KINOMEscan (screening service)
T5 sequence (Q13470 whole entry): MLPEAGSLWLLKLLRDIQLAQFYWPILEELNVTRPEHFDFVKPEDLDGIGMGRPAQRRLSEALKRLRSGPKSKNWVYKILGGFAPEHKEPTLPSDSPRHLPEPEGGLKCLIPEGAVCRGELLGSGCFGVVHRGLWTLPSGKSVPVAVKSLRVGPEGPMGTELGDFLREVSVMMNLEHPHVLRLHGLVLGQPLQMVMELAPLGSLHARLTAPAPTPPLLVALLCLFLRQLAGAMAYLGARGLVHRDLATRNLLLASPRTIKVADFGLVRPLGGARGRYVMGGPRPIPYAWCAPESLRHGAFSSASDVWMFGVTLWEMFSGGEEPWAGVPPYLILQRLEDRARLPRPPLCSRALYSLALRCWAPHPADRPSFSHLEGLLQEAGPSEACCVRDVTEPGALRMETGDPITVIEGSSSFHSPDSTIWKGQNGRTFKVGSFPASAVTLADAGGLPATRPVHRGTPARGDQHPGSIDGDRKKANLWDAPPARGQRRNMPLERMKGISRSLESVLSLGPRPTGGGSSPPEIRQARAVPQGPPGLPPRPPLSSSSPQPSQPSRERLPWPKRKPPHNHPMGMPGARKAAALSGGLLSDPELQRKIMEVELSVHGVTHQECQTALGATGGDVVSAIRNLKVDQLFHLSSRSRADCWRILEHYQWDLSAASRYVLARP
Put plainly: KINOMEscan competition binding. The conditions noted are these: read-out: Percent Control. The procedure, abridged: as §2

Assay [18] deals with T6, DDR2 (Homo sapiens, UniProt Q16832).
T6 construct: purchased KINOMEscan (screening service)
In words: KINOMEscan competition binding. The conditions noted are these: read-out: Percent Control. The method in brief:
as §2

Assay [19] concerns the target T7, EGFR(T790M) (Homo sapiens, UniProt P00533, T790M).
T7 construct: purchased KINOMEscan (screening service)
Put plainly: KINOMEscan competition binding. The conditions noted are these: read-out: Percent Control. The procedure, abridged: as §2

The target in assay [20] is MAP3K2 (Homo sapiens, UniProt Q9Y2U5). In words: KINOMEscan competition binding. Particulars: read-out: Percent Control. The procedure, abridged:
as §2

Assay [21] has as its target MAP4K4 (Homo sapiens, UniProt O95819). In words: KINOMEscan competition binding. The conditions noted are these: read-out: Percent Control. The procedure, abridged: as §2

Sequence of MAP4K4 (O95819 whole entry): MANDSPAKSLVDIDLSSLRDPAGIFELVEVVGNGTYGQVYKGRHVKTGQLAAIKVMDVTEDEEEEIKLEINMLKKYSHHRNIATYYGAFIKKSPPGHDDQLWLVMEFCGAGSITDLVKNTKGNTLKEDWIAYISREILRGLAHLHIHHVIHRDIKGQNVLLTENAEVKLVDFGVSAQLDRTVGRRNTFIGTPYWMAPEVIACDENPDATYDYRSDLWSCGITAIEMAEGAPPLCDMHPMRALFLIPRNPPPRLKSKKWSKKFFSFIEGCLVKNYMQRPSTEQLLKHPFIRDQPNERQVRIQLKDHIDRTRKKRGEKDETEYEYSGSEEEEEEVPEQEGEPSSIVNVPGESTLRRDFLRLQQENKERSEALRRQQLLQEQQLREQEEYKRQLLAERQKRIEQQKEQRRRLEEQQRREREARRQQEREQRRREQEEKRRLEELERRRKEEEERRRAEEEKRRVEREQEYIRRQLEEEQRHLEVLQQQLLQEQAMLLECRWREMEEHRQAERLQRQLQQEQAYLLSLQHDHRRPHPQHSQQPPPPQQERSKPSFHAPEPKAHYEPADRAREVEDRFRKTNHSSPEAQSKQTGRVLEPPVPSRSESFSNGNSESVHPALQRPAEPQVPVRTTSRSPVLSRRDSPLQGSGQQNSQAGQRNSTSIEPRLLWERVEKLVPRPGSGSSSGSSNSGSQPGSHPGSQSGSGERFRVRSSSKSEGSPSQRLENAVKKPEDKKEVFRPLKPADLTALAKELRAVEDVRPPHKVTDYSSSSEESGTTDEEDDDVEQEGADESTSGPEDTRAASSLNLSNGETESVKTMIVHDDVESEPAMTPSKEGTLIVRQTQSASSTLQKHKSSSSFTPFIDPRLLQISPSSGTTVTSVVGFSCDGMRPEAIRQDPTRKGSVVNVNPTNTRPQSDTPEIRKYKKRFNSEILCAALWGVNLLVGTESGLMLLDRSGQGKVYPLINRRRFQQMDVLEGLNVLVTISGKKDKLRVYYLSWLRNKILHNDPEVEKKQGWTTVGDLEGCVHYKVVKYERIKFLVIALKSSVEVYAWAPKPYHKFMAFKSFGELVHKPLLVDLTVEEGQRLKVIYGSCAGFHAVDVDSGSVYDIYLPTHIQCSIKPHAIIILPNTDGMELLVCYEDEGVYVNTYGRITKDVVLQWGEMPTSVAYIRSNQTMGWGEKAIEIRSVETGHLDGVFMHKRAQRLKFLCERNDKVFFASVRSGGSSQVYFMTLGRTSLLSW
Sequence of RIPK2 (O43353 whole entry): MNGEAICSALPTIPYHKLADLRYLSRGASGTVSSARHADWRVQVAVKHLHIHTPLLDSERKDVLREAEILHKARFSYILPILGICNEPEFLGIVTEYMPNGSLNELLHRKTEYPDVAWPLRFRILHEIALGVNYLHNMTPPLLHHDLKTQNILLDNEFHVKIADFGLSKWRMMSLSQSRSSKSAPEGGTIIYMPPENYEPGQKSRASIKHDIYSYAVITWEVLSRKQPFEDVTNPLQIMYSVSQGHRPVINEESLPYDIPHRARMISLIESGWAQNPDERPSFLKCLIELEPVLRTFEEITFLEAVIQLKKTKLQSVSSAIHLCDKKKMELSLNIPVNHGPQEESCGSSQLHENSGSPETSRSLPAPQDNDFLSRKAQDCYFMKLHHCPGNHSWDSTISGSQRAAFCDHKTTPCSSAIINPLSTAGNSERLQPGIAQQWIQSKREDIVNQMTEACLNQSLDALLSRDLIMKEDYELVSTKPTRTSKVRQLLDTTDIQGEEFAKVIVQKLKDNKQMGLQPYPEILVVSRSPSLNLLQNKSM
Sequence of MLK3 (Q16584 whole entry): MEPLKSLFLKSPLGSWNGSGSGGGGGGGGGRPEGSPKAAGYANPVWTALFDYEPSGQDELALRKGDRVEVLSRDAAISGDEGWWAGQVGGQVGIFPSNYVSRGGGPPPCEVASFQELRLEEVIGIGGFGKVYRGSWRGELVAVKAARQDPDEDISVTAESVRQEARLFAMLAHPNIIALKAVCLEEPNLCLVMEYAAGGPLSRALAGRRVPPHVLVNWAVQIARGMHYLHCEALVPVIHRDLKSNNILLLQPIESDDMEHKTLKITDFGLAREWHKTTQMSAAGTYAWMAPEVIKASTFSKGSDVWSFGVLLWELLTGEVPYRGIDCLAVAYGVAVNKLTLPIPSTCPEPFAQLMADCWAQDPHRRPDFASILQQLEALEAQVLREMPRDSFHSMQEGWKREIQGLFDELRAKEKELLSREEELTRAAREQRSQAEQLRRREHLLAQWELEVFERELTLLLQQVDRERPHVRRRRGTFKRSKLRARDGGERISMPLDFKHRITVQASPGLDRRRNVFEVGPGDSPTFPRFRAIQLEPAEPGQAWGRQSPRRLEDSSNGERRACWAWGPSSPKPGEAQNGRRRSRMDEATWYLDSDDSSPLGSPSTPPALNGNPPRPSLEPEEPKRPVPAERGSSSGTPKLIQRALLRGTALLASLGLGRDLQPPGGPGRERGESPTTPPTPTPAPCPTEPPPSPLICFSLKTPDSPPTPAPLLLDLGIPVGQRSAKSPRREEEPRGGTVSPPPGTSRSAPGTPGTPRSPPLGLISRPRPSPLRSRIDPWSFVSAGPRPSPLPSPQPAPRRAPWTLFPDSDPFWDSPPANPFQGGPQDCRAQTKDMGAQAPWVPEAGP

In general, IC50 refers to the concentration that inhibits the measured activity by half. In the case of `Cc1ccc(Nc2ncc3c(n2)N(C)CN(c2cc(NC(=O)c4cccc(C(F)(F)F)c4)ccc2C)C3)cn1` [IA-9, N-(4-methyl-3-(1-methyl-7-((6-methylpyridin-3-yl)amino)-1,4-dihydropyrimido[4,5-d]pyrimidin-3(2H)-yl)phenyl)-3-(trifluoromethyl)benzamide], the “reduction of proliferation of melanoma cells” value in assay [1] is recorded as “reduce the proliferation of melanoma cells”. The values for the IC50 in assay [2] and in [3] were 380 nM and 5380 nM, respectively. Further, the GI50 turned out to be 5 nM in [4] and 651 nM in assay [5]. In addition, the remaining binding at 10 µM in assay [6] was 4.6%; in assay [7], 29%; in assay [8], 7%; in assay [9], 3.6%; in assay [10], 0%; in assay [11] it was 0.7%. For the same compound, the remaining binding at 10 µM in assay [12] stood at 2.7%; in assay [13], 6%; in [14], 4.4%; in [15], 0%; in assay [16] it was 5.8%; in [17], 12%. Further, the remaining binding at 10 µM in assay [18] was found to be 9.1%; in assay [19], 13%; in assay [20], 5%; in assay [21], 0.6%.

Source of the values: patent US10364247B2, “Preparation and use of novel protein kinase inhibitors” (Ruijin Hospital Affiliated to Shanghai Jiao Tong University …, priority 2015, dated 2019).
